{"source": "patent US11478498B2", "about": "“Topical pharmaceutical formulations containing a low concentration of benzoyl peroxide in suspension in water and a water-miscible organic solvent” (Dow Pharmaceutical Sciences, Inc., priority 2008, dated 2022)", "assay": "Solubility of benzoyl peroxide in organic solvents by HPLC analysis", "assay_type": "physicochemical", "details": "room temperature", "description": "An example of a preferred organic solvent for the formulation of the invention is a polyol, also known as a polyhydric alcohol. Representative examples of polyols include glycols and sugar alcohols. Preferred polyols for the formulation of the invention include polyether glycols, such as ethoxydiglycol, and propylene glycol. A preferred water-miscible organic solvent is propylene glycol. The inventors have determined by HPLC analysis that benzoyl peroxide is soluble in 100% propylene glycol at room temperature at a level between 0.2% and 0.3% w/w. A second preferred organic solvent is ethoxydiglycol, such as sold under the tradename Transcutol® (Gattefosse, Saint-Priest, France). It has been determined by HPLC analysis that benzoyl peroxide is soluble in ethoxydiglycol at room temperature at a level of about 4.9%. Another preferred organic solvent is polyethylene glycol, such as PEG 400.", "data": [{"smiles": "O=C(OOC(=O)c1ccccc1)c1ccccc1", "note": "[benzoyl peroxide]", "values": [{"measurement": "Solubility of benzoyl peroxide in ethoxydiglycol", "result": "about 4.9%"}]}]}
